{"source": "ChEMBL document CHEMBL5715956", "about": "“Selective Targeting of Bromodomains of the Bromodomain-PHD Fingers Family Impairs Osteoclast Differentiation” (ACS Chem Biol, 2017)", "key": {"Homo sapiens": {"species": "Homo sapiens", "details": "dose 10.0 µM; call rule not given here"}, "[1]": {"target": "Transcription initiation factor TFIID subunit 1 (Homo sapiens) (UniProt P21675)", "sequence (P21675 whole entry)": "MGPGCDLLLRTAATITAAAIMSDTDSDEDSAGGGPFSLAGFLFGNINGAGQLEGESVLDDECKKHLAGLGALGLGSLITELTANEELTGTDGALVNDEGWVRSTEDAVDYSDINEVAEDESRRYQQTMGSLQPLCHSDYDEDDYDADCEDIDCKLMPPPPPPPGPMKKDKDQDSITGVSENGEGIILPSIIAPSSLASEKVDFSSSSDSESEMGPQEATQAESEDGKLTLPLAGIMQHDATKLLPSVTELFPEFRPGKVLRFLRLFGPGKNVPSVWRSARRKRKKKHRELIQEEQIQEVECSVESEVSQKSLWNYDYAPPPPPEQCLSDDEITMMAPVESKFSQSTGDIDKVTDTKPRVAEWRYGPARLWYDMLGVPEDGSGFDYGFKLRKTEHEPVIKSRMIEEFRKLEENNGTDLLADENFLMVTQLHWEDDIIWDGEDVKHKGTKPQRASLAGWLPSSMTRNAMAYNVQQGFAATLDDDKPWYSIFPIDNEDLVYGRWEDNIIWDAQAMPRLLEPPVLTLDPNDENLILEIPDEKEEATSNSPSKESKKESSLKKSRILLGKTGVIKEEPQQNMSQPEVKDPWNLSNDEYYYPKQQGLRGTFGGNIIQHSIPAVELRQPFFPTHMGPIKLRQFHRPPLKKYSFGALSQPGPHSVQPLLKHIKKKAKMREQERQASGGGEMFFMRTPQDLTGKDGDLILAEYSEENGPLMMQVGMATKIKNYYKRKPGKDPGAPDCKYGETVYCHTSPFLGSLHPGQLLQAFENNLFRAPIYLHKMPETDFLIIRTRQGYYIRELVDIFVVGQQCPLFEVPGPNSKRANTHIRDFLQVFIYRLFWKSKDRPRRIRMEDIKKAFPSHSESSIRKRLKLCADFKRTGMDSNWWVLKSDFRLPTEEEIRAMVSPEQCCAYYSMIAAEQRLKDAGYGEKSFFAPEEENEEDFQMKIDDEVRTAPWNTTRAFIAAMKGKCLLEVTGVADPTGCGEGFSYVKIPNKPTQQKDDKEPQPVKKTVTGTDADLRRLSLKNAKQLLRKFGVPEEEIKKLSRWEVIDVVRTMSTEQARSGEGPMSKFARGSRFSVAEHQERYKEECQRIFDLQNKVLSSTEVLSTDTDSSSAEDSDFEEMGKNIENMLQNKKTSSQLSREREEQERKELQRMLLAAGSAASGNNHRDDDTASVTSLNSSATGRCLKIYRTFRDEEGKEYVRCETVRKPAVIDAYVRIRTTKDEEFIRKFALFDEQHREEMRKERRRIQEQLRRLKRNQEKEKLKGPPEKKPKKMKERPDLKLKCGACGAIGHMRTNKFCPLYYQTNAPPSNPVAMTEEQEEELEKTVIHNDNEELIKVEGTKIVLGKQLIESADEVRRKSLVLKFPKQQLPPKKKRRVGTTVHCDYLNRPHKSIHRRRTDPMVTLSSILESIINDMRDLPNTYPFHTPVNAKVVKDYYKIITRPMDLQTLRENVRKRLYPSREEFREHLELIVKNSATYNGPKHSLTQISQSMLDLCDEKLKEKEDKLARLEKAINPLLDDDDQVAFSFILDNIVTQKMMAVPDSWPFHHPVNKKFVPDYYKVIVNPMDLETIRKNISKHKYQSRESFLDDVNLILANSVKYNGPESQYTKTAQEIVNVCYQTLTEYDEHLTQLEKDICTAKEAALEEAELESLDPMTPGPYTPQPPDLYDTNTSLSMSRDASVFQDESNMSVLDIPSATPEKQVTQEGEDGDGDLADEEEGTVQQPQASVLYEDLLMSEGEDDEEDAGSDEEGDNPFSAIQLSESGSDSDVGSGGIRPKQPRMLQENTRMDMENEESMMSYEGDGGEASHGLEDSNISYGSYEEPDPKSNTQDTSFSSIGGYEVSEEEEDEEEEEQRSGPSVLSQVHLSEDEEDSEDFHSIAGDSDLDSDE", "details": "dose 10.0 µM"}, "[2]": {"target": "T1, KV channel (voltage-gated potassium channel family) (Homo sapiens, UniProt O43525+O43526+O95259+P16389+P17658+P22001+P22459+P22460+P48547+P51787+P56696+Q03721+Q09470+Q12809+Q14003+Q14721+Q16322+Q6PIU1+Q8NCM2+Q8TAE7+Q8TDN1+Q8TDN2+Q92953+Q96KK3+Q96L42+Q96PR1+Q96RP8+Q9BQ31+Q9H252+Q9H3M0+Q9NR82+Q9NS40+Q9NSA2+Q9NZV8+Q9UIX4+Q9UJ96+Q9UK17+Q9ULD8+Q9ULS6+Q9UQ05)", "assay": "Inhibition of KV channel (unknown origin) at 10 uM relative to control", "assay_type": "protein assay"}, "[3]": {"target": "Bromodomain-containing protein 9 (Homo sapiens) (UniProt Q9H8M2)", "sequence (Q9H8M2 whole entry)": "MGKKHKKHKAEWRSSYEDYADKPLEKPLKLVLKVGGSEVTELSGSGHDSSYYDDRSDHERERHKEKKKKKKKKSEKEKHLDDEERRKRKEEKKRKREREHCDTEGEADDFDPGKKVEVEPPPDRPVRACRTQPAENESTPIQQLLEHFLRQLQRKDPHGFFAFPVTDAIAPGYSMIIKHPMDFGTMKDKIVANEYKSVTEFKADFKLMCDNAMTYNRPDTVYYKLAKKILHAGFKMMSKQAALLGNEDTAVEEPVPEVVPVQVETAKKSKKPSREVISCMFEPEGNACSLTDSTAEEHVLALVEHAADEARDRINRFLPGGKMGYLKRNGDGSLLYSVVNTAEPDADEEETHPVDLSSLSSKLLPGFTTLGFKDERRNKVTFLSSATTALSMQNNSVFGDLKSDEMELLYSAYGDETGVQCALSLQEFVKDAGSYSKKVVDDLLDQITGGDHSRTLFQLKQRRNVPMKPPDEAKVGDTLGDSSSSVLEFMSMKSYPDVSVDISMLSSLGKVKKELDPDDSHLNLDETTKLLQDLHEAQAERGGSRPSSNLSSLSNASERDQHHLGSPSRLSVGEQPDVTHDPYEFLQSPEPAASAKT", "details": "dose 10.0 µM"}, "[4]": {"target": "Bromodomain and PHD finger-containing protein 3 (Homo sapiens, UniProt Q9ULD4)", "assay": "Inhibition of BRPF3 (unknown origin) incubated for 60 mins by alphascreen competitive assay"}, "[5]": {"target": "Beta-2 adrenergic receptor (Homo sapiens) (UniProt P07550)", "sequence (P07550 whole entry, looked up)": "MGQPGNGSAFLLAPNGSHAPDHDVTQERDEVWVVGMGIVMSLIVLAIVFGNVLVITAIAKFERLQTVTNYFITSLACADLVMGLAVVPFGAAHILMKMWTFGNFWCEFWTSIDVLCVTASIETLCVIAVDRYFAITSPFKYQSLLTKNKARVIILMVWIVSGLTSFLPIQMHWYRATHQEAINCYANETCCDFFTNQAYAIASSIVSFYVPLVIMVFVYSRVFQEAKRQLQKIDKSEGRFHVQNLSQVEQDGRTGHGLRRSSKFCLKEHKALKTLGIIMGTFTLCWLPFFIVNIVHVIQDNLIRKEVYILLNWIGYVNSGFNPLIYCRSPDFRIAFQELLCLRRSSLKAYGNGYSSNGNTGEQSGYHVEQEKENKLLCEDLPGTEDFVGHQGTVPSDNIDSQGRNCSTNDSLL", "assay": "Binding affinity to Beta2 (unknown origin) assessed as specific binding at 10 uM relative to control"}, "[6]": {"target": "Muscarinic acetylcholine receptor M2 (Homo sapiens) (UniProt P08172)", "sequence (P08172 whole entry)": "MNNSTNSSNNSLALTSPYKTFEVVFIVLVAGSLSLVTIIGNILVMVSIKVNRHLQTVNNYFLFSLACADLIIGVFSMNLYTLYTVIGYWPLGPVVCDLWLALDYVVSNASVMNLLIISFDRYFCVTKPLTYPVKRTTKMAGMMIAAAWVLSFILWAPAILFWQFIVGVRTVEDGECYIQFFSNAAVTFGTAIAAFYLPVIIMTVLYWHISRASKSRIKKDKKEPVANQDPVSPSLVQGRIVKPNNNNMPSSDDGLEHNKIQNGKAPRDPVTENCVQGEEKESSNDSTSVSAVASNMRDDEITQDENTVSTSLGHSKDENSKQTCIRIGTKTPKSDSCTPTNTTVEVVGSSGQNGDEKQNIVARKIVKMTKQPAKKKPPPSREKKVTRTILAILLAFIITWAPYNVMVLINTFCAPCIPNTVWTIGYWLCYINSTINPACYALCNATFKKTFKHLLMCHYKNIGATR", "assay": "Inhibition of M2 receptor (unknown origin) at 10 uM relative to control"}, "[7]": {"target": "Histamine H1 receptor (Homo sapiens) (UniProt P35367)", "sequence (P35367 whole entry)": "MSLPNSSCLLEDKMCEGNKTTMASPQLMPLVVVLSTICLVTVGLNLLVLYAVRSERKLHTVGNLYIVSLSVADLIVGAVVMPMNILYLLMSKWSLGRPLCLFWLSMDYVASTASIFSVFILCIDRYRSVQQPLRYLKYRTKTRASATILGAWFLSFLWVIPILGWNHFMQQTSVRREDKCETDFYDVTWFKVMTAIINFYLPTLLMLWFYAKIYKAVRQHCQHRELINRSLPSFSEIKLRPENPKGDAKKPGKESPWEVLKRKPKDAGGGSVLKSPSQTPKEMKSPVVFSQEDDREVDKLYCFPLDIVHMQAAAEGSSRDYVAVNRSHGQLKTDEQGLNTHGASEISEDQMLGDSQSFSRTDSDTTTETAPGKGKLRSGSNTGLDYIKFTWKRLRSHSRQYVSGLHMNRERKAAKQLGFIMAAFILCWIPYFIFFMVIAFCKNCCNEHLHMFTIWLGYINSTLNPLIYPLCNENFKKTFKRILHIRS", "assay": "Binding affinity to H1 receptor (unknown origin) assessed as specific binding at 10 uM relative to control"}, "[8]": {"target": "T1, KV channel (voltage-gated potassium channel family)", "assay": "Binding affinity to KV channel (unknown origin) assessed as specific binding at 10 uM relative to control", "assay_type": "protein assay", "details": "read-out: Activity"}, "[9]": {"target": "Bromodomain and WD repeat-containing protein 3 (Homo sapiens) (UniProt Q6RI45)", "details": "dose 10.0 µM"}, "[10]": {"target": "T2, Bromodomain and PHD finger-containing protein 3 (Homo sapiens) (UniProt Q9ULD4)", "T2 sequence (whole entry)": "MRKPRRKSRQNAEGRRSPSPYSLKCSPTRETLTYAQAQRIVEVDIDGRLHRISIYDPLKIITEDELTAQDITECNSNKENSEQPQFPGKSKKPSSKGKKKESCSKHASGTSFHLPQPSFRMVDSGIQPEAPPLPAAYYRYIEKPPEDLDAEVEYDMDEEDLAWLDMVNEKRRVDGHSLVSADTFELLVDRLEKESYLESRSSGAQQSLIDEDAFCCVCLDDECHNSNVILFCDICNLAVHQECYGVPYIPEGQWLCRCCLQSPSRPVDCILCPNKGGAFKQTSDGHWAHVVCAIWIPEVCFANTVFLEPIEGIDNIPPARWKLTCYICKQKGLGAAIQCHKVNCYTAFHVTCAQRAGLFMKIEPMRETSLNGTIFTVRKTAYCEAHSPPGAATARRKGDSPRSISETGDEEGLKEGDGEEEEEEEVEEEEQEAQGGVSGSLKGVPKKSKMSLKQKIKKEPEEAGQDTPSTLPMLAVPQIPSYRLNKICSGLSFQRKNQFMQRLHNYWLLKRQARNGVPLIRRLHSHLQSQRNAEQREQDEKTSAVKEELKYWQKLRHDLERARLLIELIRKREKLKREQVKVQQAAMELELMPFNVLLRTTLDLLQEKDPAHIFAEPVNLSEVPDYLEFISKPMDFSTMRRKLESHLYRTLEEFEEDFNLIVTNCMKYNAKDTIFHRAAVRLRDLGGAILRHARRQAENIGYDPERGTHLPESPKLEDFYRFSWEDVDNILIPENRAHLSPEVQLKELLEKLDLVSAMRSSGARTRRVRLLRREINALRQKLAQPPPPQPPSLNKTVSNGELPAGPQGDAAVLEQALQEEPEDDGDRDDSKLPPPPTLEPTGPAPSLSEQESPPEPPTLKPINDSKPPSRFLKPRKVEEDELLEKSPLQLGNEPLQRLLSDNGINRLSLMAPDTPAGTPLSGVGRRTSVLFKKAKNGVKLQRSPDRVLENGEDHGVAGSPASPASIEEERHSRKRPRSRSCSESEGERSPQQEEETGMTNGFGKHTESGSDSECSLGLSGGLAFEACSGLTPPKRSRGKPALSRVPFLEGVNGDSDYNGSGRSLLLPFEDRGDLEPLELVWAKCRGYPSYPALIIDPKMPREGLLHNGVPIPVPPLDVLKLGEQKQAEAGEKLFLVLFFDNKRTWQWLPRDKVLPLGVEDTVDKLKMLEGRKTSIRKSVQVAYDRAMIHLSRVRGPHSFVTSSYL", "assay": "Binding affinity to BRPF3 (unknown origin) assessed as change in entropy TdeltaS at 12 uM by Isothermal titration calorimetry"}, "[11]": {"target": "Transcription initiation factor TFIID subunit 1 (Homo sapiens) (UniProt P21675)", "details": "dose 10.0 µM", "remark": "listed apart in the source"}, "[12]": {"target": "Adenosine receptor A1 (Homo sapiens) (UniProt P30542)", "sequence (P30542 whole entry)": "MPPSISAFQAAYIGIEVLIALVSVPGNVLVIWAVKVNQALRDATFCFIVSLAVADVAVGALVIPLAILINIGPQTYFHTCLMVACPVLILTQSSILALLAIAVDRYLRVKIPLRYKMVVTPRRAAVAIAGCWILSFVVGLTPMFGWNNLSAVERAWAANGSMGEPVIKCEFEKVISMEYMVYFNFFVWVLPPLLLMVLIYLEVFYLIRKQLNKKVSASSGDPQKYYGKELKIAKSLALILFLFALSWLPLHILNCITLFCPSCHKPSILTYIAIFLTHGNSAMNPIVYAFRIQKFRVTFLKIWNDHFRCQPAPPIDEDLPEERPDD", "assay": "Binding affinity to A1 receptor (unknown origin) assessed as specific binding at 10 uM relative to control"}, "[13]": {"target": "Histone-lysine N-methyltransferase 2A (Homo sapiens) (UniProt Q03164)", "details": "dose 10.0 µM"}, "[14]": {"target": "5-hydroxytryptamine receptor 5A (Homo sapiens) (UniProt P47898)", "sequence (P47898 whole entry)": "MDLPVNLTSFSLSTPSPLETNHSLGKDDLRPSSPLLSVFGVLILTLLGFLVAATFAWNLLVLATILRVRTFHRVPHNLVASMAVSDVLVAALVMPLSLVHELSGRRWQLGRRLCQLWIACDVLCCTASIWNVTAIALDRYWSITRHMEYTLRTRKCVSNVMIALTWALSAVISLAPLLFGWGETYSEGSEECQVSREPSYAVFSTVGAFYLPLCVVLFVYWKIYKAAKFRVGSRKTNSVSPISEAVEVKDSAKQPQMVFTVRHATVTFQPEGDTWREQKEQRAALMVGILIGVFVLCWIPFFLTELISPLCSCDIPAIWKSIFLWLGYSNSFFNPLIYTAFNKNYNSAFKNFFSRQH", "assay": "Inhibition of 5HT5A (unknown origin) at 10 uM relative to control"}, "[15]": {"target": "5-hydroxytryptamine receptor 7 (Homo sapiens) (UniProt P34969)", "sequence (P34969 whole entry)": "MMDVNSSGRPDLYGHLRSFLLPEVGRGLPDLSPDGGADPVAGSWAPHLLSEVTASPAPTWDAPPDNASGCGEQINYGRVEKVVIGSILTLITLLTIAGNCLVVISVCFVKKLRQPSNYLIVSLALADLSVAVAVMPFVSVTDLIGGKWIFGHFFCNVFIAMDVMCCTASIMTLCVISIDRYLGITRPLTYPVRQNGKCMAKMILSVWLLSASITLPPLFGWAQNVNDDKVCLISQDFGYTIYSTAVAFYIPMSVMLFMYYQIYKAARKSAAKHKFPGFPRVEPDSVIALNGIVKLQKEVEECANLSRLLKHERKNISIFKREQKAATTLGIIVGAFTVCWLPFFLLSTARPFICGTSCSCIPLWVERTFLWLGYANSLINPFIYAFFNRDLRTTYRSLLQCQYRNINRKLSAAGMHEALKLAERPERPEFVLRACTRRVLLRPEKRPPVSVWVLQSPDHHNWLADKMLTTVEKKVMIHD", "assay": "Inhibition of 5HT7 (unknown origin) at 10 uM relative to control"}}, "data": [{"smiles": "COc1cc2c(cc1NS(=O)(=O)c1ccc(Br)cc1C)n(C)c(=O)n2C", "values": [{"measurement": "ΔTm", "setting": "Homo sapiens", "value": 0.2, "unit": "°C"}, {"measurement": "ΔTm", "setting": "[1]", "value": 0.2, "unit": "°C"}, {"measurement": "inhibition at 10 µM", "setting": "[2]", "value": -18, "unit": "%"}, {"measurement": "ΔTm", "setting": "[3]", "value": 1, "unit": "°C"}, {"measurement": "IC50", "setting": "[4]", "value": "Not Active"}, {"measurement": "Activity", "setting": "[5]", "value": 93.6, "unit": "%"}, {"measurement": "inhibition", "setting": "[6]", "value": 9, "unit": "%"}, {"measurement": "Activity", "setting": "[7]", "value": 96.8, "unit": "%"}, {"measurement": "activity at 10 µM", "setting": "[8]", "value": 124, "unit": "%"}, {"measurement": "ΔTm", "setting": "[9]", "value": 1.3, "unit": "°C"}, {"measurement": "TdeltaS", "setting": "[10]", "value": 0.427, "unit": "kcal/mol"}, {"measurement": "ΔTm", "setting": "[11]", "value": 0.2, "unit": "°C"}, {"measurement": "Activity", "setting": "[12]", "value": 19.8, "unit": "%"}, {"measurement": "ΔTm", "setting": "[13]", "value": 0.3, "unit": "°C"}, {"measurement": "inhibition", "setting": "[14]", "value": 22, "unit": "%"}, {"measurement": "inhibition", "setting": "[15]", "value": 2, "unit": "%"}]}]}
